Tests used:
transplanted neoplasms = settings: cited from earlier work; for growth of transplanted neoplasms in animals: U.S. Pat. No. 4,383,994
[1] = system: normal and hypophysectomized animals; settings: Science 1976, 192:372-374, cited from earlier work
[2] = system: transplanted malignant neoplasms; settings: animals with transplanted malignant neoplasms; U.S. Pat. No. 4,255,443; cited from earlier work
[3] = system: transplanted murine mammary adenocarcinoma; settings: Chemotherapy 1977; 23:44-49; cited from earlier work
retinal cells = settings: through reactive oxygen species generation and increased expression of heme oxygenase; J Cell Physiol 2006; cited from earlier work
[4] = system: rats treated with parenteral homocysteine thiolactone; settings: Kazimir et al 2002; cited from earlier work
[5] = Carcinogenesis 1987; 8:1559-1562; Proc Soc Exp Biol Med 1989; 191:346-351; cited from earlier work
Toxicity in animal tests = settings: 7.5 mg/70 kg/day to 300 mg/70 kg/day
Toxicity in human trials = settings: 7.5 mg/70 kg/day to 300 mg/70 kg/day

N-maleyl homocysteine thiolactone amide
growth of transplanted neoplasms in animals (transplanted neoplasms): suppress the growth

N[C@@H](CCS(=O)(=O)O)C(=O)O [Homocysteic acid]
growth and release of insulin-like growth factor, IGF-1 ([1]; hypophysectomized animals treated with thyroxine): promotes growth and release of insulin-like growth factor, IGF-1
growth in normal animals ([1]; normal animals): promotes growth

N[C@H]1CCSC1=O.[O-][Cl+3]([O-])([O-])O [homocysteine thiolactone perchlorate]
necrosis within malignant neoplasms [2]: increased necrosis within malignant neoplasms

CCCCC/C=C/C/C=C/C/C=C/C/C=C/CCCC(=O)NC1CCSC1=O (stereo not shown) [Arachidonoyl homocysteine thiolactone amide]
growth of transplanted murine mammary adenocarcinoma [3]: decrease the growth

CC1=C(/C=C/C(C)=C/C=C/C(C)=C/C(=O)Nc2ccc(O)cc2)C(C)(C)CCC1 [fenretinide, N-(4-hydroxyphenyl)-retinamide]
apoptosis in retinal cells (retinal cells): induces apoptosis

N-maleamide homocysteine thiolactone amide
growth of transplanted neoplasms in animals (transplanted neoplasms): suppress the growth
effect of encapsulation within liposomes on anti-neoplastic activity (transplanted neoplasms; encapsulated within liposomes, Proc Soc Exp Biol Med 1985, 180:57-61): greatly enhances its anti-neoplastic activity

CC1=C(/C=C/C(C)=C/C=C/C(C)=C/C(=O)NC2CCSC2=O)C(C)(C)CCC1 (stereo not shown) [thioretinamide, N-homocysteine thiolactonyl retinamide]
anti-atherogenic activity [4]: have anti-atherogenic activity
anti-carcinogenic and anti-neoplastic activities [5]: have anti-carcinogenic and anti-neoplastic activities

N-homocysteine thiolactonyl retinamido cobalamin [thioretinaco]
anti-atherogenic activity [4]: have anti-atherogenic activity
anti-carcinogenic and anti-neoplastic activities [5]: have anti-carcinogenic and anti-neoplastic activities

rhodium trichloride oxalyl homocysteine thiolactone amide
growth of transplanted neoplasms in animals (transplanted neoplasms): suppress the growth

pyridoxal homocysteine thiolactone enamine
growth of transplanted murine mammary adenocarcinoma [3]: decrease the growth

CC1=C(/C=C/C(C)=C/C=C/C(C)=C/CO)C(C)(C)CCC1 [retinol]
evidence of toxicity, such as weight loss, nausea, impairment of liver function, headache, or skin lesions (Toxicity in animal tests): no evidence of toxicity
evidence of toxicity, such as weight loss, nausea, impairment of liver function, headache, or skin lesions (Toxicity in human trials): no evidence of toxicity

Source: patent publication US9682131B2, “Compositions and method for utilization of thioretinamide in therapy of degenerative diseases of aging” (priority 2011, dated 2017)
